Assay results: article PMC9792776 (Frontiers in Pharmacology, 2022)
Read-outs that look alike come from different tables or passages of the source.

How the values were obtained:
[1] = PBPK model parameters optimized or assumed (Simcyp minimal PBPK); design: species or system human
Description: The first-order absorption model has different absorption rate constants (ka) and fraction available from dosage form (fa) to simulate absorption processes in fasting and fed states. […] Caco-2 (human colorectal adenocarcinoma) cells are used to model the intestinal epithelial barrier. The Simcyp (Version 19.0, Certara Inc., Sheffield, UK) minimal PBPK, which treats all organs other than the intestine and liver as a single compartment ([Rowland Yeo et al., 2010]), was selected, along with a single adjusting compartment (SAC) distribution model. The SAC is a nonphysiologic compartment that permits adjustment to the drug concentration profile in the systemic compartment ([Ke et al., 2016]).

[2] = Food effect clinical study in Chinese patients with CML (NCT03882281); format: in vivo, human
Description: In the first study, on food effects, 12 Chinese patients with CML were randomly divided into two groups (A and B) and the experiments divided into two periods. […] After a seven- day washout period, subjects in both groups took the drug interchangeably in period 2 (NCT03882281).

T315I-mutated CML = conditions: 40 mg QOD, 28-day cycles over 24 months, ref Jiang et al., 2022, cited from earlier work
[3] = Phase 1 dose escalation study (renal clearance); conditions: human, in vivo; 12 Chinese patients, 50 mg oral on Day 1
CYP3A4 [4] = target: T1, CYP3A4 (Homo sapiens, UniProt P08684); assay: Intrinsic clearance in human recombinant CYP3A4
OAT3 = target: T2, OAT3 (Homo sapiens, UniProt Q8TCC7); assay: Transporter substrate/inhibitor assessment, OAT3; format: in vitro ADME
T2 sequence (Q8TCC7 1-542): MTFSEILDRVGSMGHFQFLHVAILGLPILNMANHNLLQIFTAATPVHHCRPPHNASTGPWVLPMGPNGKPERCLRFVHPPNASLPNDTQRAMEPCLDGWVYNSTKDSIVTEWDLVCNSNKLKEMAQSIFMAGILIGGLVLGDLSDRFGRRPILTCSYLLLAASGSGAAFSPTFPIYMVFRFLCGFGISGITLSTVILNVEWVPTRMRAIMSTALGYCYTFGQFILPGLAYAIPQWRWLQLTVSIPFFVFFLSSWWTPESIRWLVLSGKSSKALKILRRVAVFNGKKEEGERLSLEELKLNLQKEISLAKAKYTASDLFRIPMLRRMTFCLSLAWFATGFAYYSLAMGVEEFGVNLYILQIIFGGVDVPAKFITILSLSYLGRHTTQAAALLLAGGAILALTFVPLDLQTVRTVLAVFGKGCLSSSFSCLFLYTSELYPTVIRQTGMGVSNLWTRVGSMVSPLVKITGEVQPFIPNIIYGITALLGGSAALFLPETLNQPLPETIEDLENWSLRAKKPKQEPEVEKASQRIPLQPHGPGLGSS

MATE1 = MATE1 (Homo sapiens, UniProt Q96FL8); assay: Transporter substrate/inhibitor assessment, MATE1; format: in vitro ADME
P-gp = P-gp (Homo sapiens, UniProt P08183); assay: P-gp substrate and in vivo inhibition assessment
Description: The effects of transporters expressed on the gut and liver have not been investigated.

CYP2C9 = CYP2C9 (Homo sapiens, UniProt P11712); assay: CYP2C9 inhibition in human liver microsomes (diclofenac probe)
Method: Ki=IC50/1+S/Km (1) Where IC50 signifies the half-maximum inhibitory concentration; S, the concentration of P450 marker substrate; and K m , the Michaelis constant within the Michaelis-Menten equation, which is in turn used to characterize substrate-enzyme binding kinetics.
The Michaelis constant (K m ) of CYP2C9 incubated with diclofenac was obtained from reported data ([Lee et al., 2014]). Methods used to calculate the Ki of CYP2C19 and CYP2C9 were similar.

CYP3A4 [5] = target: T1, CYP3A4; conditions: recombinant enzyme
[6] = Log Po:w (octanol-water partition coefficient); format: physicochemical
Description: TABLE 1 Model development and model parameters. | column: Value

CYP2B6 = CYP2B6 mRNA induction in cultured human hepatocytes; format: cell-based; conditions: for EC50: human, cultured human hepatocytes
OCT2 = target: T3, OCT2 (Homo sapiens, UniProt O15244); assay: Transporter substrate/inhibitor assessment, OCT2; format: in vitro ADME
T3 sequence (O15244 1-555): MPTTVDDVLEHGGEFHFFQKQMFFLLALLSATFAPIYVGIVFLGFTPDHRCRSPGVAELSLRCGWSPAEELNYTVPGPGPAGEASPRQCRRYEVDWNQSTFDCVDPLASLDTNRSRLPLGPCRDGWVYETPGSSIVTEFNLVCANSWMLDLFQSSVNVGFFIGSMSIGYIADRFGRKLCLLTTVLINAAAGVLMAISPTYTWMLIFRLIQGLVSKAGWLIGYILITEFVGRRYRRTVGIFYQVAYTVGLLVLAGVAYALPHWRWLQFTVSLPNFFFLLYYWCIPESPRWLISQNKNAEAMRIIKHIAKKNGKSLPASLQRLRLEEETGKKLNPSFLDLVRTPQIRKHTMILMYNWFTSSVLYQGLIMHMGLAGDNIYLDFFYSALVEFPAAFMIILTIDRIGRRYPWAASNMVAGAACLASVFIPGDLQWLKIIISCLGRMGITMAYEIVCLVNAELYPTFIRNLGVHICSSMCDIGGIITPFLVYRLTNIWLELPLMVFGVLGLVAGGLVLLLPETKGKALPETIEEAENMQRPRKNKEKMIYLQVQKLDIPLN

[7] = Fasting, optimized based on observed data
[8] = Fed, optimized based on observed data
[9] = optimized based on observed data
[10] = Chinese CML patients, fed, 30 mg SD

Sequence of P-gp (P08183 whole entry): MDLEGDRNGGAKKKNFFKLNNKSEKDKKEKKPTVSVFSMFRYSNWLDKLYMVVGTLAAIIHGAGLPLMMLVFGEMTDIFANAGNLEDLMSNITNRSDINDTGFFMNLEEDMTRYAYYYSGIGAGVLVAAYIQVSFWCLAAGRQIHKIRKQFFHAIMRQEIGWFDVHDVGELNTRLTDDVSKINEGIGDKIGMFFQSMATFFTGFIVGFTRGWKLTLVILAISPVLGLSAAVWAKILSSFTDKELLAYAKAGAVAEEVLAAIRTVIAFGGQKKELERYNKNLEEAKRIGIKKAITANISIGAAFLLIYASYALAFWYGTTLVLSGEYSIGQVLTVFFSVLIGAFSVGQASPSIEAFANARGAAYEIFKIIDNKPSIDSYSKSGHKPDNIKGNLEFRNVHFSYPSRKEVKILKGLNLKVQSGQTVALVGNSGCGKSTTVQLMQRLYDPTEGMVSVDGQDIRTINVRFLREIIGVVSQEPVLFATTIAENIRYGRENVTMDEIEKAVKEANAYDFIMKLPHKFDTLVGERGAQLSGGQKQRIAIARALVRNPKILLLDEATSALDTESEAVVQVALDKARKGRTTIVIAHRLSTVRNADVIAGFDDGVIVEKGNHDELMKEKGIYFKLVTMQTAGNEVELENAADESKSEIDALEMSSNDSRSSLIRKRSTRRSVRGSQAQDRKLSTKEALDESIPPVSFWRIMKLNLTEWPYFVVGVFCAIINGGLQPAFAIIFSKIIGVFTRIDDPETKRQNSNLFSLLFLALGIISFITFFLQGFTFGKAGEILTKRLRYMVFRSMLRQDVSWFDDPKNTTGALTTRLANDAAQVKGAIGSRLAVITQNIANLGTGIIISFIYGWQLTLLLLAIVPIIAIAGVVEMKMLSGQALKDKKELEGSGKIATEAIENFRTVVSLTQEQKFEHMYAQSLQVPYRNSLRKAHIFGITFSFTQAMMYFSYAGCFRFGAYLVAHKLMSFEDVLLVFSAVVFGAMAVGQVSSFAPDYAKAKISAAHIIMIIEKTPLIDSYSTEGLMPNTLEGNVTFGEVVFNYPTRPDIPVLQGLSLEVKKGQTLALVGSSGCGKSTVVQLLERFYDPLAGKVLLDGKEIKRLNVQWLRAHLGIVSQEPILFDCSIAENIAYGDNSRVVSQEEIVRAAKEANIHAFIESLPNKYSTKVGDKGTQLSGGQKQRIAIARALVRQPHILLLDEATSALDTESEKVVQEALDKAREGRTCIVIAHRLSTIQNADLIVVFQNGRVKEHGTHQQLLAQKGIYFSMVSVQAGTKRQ
T1 sequence (P08684 whole entry): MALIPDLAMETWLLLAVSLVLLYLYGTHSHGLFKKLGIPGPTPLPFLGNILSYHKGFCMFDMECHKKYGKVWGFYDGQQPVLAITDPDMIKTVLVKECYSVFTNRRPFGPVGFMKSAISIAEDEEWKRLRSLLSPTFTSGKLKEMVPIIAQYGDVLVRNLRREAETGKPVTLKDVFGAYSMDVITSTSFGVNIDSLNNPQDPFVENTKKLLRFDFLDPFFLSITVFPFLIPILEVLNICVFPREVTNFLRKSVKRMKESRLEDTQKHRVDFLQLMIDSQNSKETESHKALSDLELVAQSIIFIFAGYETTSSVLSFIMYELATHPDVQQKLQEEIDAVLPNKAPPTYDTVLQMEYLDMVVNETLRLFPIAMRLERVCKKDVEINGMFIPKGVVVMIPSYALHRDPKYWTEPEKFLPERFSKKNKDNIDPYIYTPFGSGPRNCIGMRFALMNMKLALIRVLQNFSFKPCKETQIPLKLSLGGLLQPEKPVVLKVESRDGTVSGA
Sequence of CYP2C9 (P11712 whole entry): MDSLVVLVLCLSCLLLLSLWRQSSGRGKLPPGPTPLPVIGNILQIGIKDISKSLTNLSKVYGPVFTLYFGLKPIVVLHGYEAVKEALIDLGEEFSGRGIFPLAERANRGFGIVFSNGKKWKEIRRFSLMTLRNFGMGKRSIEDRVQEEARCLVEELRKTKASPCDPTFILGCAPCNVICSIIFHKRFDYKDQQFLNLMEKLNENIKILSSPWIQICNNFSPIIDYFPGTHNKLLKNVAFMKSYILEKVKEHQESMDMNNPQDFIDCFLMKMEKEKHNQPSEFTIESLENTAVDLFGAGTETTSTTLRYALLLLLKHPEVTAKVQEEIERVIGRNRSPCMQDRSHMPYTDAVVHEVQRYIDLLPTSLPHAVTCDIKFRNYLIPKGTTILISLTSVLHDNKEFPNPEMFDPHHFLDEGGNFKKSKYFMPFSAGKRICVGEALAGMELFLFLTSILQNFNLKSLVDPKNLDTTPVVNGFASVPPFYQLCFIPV
Sequence of MATE1 (Q96FL8 whole entry, species assumed): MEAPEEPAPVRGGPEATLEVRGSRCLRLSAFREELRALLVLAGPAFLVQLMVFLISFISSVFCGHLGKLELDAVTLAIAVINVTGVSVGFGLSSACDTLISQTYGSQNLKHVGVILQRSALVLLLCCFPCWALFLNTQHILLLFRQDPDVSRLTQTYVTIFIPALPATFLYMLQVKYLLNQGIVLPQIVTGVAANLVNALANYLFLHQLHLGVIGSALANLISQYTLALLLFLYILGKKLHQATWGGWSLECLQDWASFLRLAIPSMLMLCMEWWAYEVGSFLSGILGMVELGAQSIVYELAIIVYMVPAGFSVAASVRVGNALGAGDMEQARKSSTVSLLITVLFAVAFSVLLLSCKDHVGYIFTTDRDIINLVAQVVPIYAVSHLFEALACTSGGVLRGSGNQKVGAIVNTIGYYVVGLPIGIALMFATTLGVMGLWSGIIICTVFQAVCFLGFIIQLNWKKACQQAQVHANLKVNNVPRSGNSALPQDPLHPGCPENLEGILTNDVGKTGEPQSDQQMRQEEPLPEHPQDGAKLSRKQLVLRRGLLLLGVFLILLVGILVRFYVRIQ

Cc1ccc(C(=O)Nc2ccc(CN3CCN(C)CC3)c(C(F)(F)F)c2)cc1C#Cc1cnc2[nH]ncc2c1 [olverembatinib, Olverembatinib]
fa [1, 7]: 0.574 (Fasting) | ka [1, 7]: 0.213 (Fasting) 1/h | fa [1, 8]: 0.8 (Fed) | ka [1, 8]: 0.136 (Fed) 1/h | fraction unbound ([1]; human, microsomal incubation, assumed equal to fu,p, read-out: fu,mic/fu,inc): 0.0005 | Kp ([1]; human, optimized based on observed data, read-out: Kp Scalar): 6.01 | ISEF CYP2C9 ([1]; optimized based on fmCYP2C9): 1.2938 | ISEF CYP3A4 ([1]; optimized based on fmCYP3A4): 0.7761 | SAC kin [1, 9]: 0.0471 h⁻¹ | SAC kout [1, 9]: 0.0177 h⁻¹ | Vsac [1, 9]: 38.02 L/kg | AUC Obs. ([2]; Chinese CML patients, fasting, 30 mg SD): 237 h?ng/mL | AUC Obs. [2, 10]: 276 h?ng/mL | Tmax Obs. (median) [2, 10]: 6.00 h | half-life ([2]; human, plasma, 30 mg, oral, patients with CML, data on file, read-out: mean apparent terminal elimination half-life (t1/2) (converted)): 32.7 h | Tmax ([2]; human, plasma, 30 mg, oral, patients with CML, data on file, read-out: median time to reach peak plasma concentration (Tmax)): 6 h | Cmax ([2]; human, plasma, oral, 30 mg, Chinese CML patients, fasting, 30 mg SD): 8.72 ng/mL | Cmax ([2]; human, plasma, oral, 30 mg, Chinese CML patients, fed, 30 mg SD): 10.8 ng/mL | Tmax ([2]; human, plasma, oral, Chinese CML patients, fasting, 30 mg SD, read-out: Tmax Obs. (median)): 6 h | major hematologic response (MaHR), patients (T315I-mutated CML; CML-AP, n = 37 without MaHR at baseline): 78.4% | major cytogenetic response (MCyR), patients (T315I-mutated CML; CML-CP, n = 121 without MCyR at baseline): 79.3% | CL renal [3]: 2.2 mL/min | CLint CYP3A4 (CYP3A4 [4]): 0.200 µL/min/pmol CYP | substrate or inhibitor of OAT3 (OAT3): neither a substrate nor inhibitor | substrate or inhibitor of MATE1 (MATE1): neither a substrate nor inhibitor | in vivo inhibition on P-gp (P-gp): no obvious in vivo inhibition | substrate of P-gp (P-gp): is a substrate | Ki (CYP2C9): 1140 nM | CYP2C9 inhibition, strength (CYP2C9; microsomes): weak | CLint CYP3A4 (CYP3A4 [5]): 0.2 µL/min/pmol CYP | Log Po:w [6]: 3.6 | EC50 (CYP2B6; CYP2B6 mRNA, lot AIH, read-out: EC50): 828 nM | EC50 (CYP2B6; CYP2B6 mRNA, lot HUM182851, read-out: EC50): 290 nM | EC50 (CYP2B6; human hepatocytes, mRNA, mean of two lots, read-out: IndC50 CYP2B6 (Mean EC50)): 559 nM | CYP2B6 induction, strength (CYP2B6; in vitro studies): weak | substrate or inhibitor of OCT2 (OCT2): neither a substrate nor inhibitor
